Active and inactive are the calls of the source.
How the values were obtained:
[1] = Trypanosoma cruzi growth suppression in host cells – NIH3T3 host cells, beta-gal luminescence, confirmation (AID 2044); format: functional, cell-based;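 also: intracellular parasites grown in NIH/3T3 mouse fibroblasts as host cells; luminescent beta-galactosidase reporter signal from transgenic T. cruzi replicating inside host cells; inhibitors lower the luminescence signal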
cells [2] = format: functional, cell-based
[3] = target: Heat shock protein HSP 90-alpha (Homo sapiens, UniProt P07900); format: functional, organism-based
[4] = target: T1, Serine/threonine-protein phosphatase (Candida dubliniensis (strain CD36 / CBS 7987 / NCPF 3949 / NRRLY-17841) (Yeast), UniProt B9W6M3); experiment: blockers of CaCl2-induced CDRE-lacZ signaling – S. cerevisiae, luminescence, secondary, dose response (AID 2388); format: functional, cell-based;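 also: yeast reporter cells carrying a calcineurin-responsive lacZ construct stimulated with calcium chloride; luminescent beta-galactosidase reporter signal in whole cells rather than isolated phosphatase activity; potency for inhibition where a drop in reporter signal means calcineurin blockade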
T1 sequence (B9W6M3 whole entry): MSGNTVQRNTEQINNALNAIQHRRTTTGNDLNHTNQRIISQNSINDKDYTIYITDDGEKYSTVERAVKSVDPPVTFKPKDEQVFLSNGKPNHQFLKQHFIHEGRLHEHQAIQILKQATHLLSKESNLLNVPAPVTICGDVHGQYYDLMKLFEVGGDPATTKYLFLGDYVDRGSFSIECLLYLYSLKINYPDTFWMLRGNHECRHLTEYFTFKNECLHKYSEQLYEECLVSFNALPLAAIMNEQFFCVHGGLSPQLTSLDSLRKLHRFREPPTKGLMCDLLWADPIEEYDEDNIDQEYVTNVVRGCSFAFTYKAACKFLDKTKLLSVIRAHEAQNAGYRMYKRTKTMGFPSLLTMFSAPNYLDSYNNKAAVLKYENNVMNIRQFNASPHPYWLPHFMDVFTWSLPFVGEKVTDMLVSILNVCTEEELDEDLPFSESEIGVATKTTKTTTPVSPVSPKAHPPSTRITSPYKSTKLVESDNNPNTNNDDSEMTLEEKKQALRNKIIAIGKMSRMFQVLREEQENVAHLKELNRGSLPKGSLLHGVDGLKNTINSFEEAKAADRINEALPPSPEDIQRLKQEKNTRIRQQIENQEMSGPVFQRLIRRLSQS

[5] = NIH3T3 cell viability loss – ATP luminescence, mouse fibroblasts, counter-screen, dose response (AID 2010); format: functional, cell-based;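 also: cells exposed to compound for about 90 hours before reading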
cells [6] = format: functional, cell-based; remark: listed apart in the source
[7] = fluconazole-exposed Candida albicans growth modulators – fluorescence, retest, confirmation (AID 2467); format: functional, cell-based
[8] = HEK-293T viability loss after treatment – luminescence, T-cell screen hits, cytotoxicity control for TCR NF-kB inhibitor project, dose response (AID 489026); format: functional, cell-based;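 also: cells exposed to compound about 14 hours before the viability readout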
[9] = NIH-3T3 fibroblast cytotoxicity, dose response, cytotoxicity control, cell-based, fluorescence, Alamar Blue, secondary assay (AID 2327); format: functional;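 also: NIH-3T3 mouse fibroblasts cultured with fluconazole at 8 µg/mL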
[10] = target: ATP-dependent molecular chaperone HSP82 (Candida albicans (strain WO-1) (Yeast), UniProt C4YTQ8); experiment: steroid-induced GRE reporter decrease in yeast – S. cerevisiae, luminescence, Hsp90 inhibitor project, dose response (AID 2400); format: functional, cell-based;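 also: beta-galactosidase luminescence from glucocorticoid response element reporter as proxy for Hsp90 function; inhibitor potency where signal loss means Hsp90 inhibition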
[11] = target: T2, Polyadenylate-binding protein 1 (Homo sapiens, UniProt P11940); experiment: MLLE domain peptide-binding blockers, IC50 – biochemical, fluorescence polarization, FITC-PAM2 peptide, dose response (AID 602259); format: functional; conditions: read-out: IC50_Mean
T2 sequence (P11940 whole entry, the tested form may be a part): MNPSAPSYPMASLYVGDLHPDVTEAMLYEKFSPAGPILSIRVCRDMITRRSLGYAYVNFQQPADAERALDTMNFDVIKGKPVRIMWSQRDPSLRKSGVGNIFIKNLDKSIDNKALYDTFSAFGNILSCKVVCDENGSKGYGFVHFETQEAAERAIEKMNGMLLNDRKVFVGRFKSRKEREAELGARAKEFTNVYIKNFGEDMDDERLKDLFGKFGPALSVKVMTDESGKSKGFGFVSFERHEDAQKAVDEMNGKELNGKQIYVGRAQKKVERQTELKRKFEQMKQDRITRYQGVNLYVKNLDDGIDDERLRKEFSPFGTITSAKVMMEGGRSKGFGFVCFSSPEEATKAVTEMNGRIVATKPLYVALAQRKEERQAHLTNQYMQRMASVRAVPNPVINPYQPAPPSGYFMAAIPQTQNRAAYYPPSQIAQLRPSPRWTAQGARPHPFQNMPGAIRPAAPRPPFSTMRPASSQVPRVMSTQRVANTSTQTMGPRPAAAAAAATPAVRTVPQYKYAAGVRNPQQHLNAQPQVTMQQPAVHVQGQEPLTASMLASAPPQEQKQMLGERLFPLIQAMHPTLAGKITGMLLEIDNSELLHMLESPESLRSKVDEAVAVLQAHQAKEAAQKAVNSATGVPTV

[12] = target: T3, Rac GTPase-activating protein 1 (Homo sapiens, UniProt Q9H0H5); experiment: blockers of MgcRacGAP-driven Rac1 GTP hydrolysis – biochemical, ADP Hunter fluorescence, primary and confirmatory, confirmation (AID 624330); format: functional
T3 sequence (Q9H0H5 whole entry): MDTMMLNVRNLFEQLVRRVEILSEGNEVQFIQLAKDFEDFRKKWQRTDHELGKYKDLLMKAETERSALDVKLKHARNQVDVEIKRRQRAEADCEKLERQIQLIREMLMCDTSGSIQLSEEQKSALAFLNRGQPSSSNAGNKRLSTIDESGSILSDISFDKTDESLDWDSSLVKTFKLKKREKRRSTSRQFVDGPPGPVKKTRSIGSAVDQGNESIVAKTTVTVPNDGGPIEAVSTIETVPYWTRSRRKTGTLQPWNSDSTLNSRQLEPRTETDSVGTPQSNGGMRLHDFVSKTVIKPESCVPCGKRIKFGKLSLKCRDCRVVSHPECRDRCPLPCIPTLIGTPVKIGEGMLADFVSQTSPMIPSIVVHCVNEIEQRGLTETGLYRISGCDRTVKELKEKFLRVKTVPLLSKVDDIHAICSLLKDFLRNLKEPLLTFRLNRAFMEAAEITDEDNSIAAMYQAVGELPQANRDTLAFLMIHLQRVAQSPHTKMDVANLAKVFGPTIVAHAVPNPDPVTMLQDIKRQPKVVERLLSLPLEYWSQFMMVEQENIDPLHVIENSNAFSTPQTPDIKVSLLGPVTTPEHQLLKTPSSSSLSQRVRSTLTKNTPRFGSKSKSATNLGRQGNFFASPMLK

[13] = target: T2, Polyadenylate-binding protein 1; experiment: MLLE binding blockers, Cy5 peptide tracer – biochemical, fluorescence polarization, Cy5-PAM2 peptide, secondary, miRNA deadenylation inhibitor project, dose response (AID 602260); format: functional; conditions: read-out: IC50_Mean
HeLa = experiment: ATP-based viability loss in HeLa cells – cell-based, CellTiter-Glo luminescence, cherry-pick samples, cytotoxicity control for MITF activator project, dose response (AID 540259); format: functional; conditions: Homo sapiens
[14] = target: Dual specificity tyrosine-phosphorylation-regulated kinase 1A (Rattus norvegicus, UniProt Q63470); format: biochemical, Homo sapiens
Large T antigen = Large T antigen (Simian virus 40, UniProt P03070); format: functional, Betapolyomavirus macacae;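 also: Confirmatory-stage PubChem screen for compounds that inhibit SV40 T antigen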
[15] = target: T4, Voltage-gated N-type calcium channel alpha-1B subunit/Amyloid beta A4 precursor protein-binding family A member 1 (Homo sapiens, UniProt Q00975+Q02410); format: protein assay
T4 sequence (Q00975 whole entry): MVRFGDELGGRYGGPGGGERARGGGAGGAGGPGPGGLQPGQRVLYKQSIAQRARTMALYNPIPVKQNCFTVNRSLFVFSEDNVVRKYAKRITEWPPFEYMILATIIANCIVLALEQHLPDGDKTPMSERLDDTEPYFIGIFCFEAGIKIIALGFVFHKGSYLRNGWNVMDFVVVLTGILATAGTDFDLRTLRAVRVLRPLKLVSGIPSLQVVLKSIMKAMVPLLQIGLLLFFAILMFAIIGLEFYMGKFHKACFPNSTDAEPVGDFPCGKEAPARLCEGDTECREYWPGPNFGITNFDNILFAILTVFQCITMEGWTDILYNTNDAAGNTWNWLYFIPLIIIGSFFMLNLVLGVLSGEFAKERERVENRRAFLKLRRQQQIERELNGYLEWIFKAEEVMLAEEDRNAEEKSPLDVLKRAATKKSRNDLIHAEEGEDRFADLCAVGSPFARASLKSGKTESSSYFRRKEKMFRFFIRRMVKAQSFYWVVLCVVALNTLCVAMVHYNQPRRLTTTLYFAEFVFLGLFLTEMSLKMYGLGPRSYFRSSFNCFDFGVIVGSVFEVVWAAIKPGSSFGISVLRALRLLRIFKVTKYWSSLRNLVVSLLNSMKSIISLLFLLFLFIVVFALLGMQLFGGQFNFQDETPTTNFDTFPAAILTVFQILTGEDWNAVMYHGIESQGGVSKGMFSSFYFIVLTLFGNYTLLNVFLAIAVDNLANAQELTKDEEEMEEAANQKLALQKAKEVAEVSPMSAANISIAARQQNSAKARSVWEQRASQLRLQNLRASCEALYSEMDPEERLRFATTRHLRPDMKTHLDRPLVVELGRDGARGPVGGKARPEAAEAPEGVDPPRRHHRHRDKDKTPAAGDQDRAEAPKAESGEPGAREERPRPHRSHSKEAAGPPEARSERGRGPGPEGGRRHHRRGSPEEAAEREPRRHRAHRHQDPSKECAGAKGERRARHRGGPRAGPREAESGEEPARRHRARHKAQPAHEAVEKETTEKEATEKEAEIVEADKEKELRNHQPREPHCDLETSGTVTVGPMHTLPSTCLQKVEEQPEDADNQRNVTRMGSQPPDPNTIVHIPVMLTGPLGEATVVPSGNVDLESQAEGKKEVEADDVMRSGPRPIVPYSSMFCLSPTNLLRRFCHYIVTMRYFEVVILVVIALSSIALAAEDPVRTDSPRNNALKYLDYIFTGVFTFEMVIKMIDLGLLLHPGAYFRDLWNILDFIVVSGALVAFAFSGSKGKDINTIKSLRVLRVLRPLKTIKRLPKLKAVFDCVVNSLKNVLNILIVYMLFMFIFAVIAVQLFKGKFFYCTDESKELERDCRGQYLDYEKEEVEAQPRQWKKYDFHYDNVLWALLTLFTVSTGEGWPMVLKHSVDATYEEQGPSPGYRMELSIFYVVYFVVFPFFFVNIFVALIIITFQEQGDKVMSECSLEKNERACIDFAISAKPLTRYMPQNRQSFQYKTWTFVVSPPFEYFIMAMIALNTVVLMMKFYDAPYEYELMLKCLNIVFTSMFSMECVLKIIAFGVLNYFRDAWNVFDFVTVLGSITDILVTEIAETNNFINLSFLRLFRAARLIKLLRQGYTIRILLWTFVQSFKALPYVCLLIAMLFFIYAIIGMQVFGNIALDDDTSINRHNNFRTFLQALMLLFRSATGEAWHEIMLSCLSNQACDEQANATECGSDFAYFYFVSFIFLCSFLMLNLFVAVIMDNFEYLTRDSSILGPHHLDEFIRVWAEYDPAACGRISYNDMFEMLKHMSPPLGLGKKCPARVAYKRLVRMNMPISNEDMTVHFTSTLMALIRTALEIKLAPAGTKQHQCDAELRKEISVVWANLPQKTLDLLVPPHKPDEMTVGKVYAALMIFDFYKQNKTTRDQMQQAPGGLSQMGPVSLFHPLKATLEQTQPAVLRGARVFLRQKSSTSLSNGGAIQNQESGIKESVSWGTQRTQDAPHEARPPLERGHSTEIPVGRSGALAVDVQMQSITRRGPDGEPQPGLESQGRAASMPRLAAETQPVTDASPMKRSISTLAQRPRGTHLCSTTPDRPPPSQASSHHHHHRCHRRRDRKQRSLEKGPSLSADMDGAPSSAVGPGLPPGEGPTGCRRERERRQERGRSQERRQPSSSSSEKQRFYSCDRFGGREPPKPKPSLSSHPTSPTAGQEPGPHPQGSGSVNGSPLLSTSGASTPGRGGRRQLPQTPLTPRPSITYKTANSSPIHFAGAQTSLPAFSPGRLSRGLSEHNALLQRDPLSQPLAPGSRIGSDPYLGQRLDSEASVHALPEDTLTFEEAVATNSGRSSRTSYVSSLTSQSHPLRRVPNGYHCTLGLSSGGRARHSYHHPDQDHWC
T4 sequence (Q02410 whole entry): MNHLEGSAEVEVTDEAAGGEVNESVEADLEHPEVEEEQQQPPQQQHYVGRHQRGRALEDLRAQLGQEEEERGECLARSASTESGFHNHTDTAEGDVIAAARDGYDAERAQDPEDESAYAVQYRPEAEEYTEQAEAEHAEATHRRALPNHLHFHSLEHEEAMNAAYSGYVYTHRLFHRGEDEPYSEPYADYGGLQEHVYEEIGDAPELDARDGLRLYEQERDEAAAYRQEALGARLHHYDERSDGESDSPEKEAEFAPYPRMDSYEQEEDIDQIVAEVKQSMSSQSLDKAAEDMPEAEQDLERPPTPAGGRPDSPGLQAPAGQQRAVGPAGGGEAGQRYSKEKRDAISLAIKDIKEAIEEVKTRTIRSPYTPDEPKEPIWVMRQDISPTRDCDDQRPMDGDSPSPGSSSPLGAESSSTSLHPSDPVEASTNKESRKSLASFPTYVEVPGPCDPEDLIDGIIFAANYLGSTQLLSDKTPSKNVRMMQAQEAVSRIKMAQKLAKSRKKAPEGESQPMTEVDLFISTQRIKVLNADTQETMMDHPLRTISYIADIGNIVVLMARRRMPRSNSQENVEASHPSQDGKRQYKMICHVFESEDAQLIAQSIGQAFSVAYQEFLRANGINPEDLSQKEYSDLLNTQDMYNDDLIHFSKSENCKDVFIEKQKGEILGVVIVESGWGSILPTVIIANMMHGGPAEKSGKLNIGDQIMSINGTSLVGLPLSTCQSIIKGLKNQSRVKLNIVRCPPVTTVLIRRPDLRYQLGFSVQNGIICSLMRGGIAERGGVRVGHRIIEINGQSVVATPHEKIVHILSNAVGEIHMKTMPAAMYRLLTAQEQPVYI

[16] = target: T4, Voltage-gated N-type calcium channel alpha-1B subunit/Amyloid beta A4 precursor protein-binding family A member 1; format: protein assay; remark: listed apart in the source
[17] = system: Streptococcus sp. 'group A'; experiment: Streptococcus pyogenes SK(-)GAS viability under kanamycin – luminescence, BacTiterGlo, confirmation, counter-screen for streptokinase expression inhibitor project, dose response (AID 1900); format: functional, organism-based
Streptococcus = experiment: GAS UMAA2166 growth inhibition – luminescence, BacTiterGlo, counter-screen for streptokinase expression inhibitor project, dose response (AID 1915); format: functional, organism-based;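 also: potency for reduction of bacterial viability or growth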
[18] = target: Voltage-dependent T-type calcium channel subunit alpha-1H (Homo sapiens, UniProt O95180); format: functional;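 also: channel activity triggered by adding a high calcium stimulation buffer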
[19] = target: T5, Runt-related transcription factor 1/Core-binding factor subunit beta (Homo sapiens, UniProt Q01196+Q13951); experiment: Runt domain/CBFb-SMMHC interaction disruptors – biochemical, TR-FRET (AID 1438); format: protein assay
T5 sequence (Q01196 whole entry, the tested form may be a part): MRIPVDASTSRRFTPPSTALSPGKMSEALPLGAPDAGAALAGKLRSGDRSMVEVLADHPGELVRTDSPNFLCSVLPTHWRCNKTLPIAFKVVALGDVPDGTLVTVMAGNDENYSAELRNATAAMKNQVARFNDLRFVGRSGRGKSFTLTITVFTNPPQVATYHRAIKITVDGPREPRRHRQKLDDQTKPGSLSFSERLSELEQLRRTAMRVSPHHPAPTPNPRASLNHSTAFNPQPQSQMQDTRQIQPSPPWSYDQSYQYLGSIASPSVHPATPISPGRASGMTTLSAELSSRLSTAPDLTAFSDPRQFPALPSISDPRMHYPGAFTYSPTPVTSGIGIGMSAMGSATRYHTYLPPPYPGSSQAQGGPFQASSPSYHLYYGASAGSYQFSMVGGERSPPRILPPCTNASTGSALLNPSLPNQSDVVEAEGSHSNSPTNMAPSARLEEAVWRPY
T5 sequence (Q13951 whole entry, the tested form may be a part): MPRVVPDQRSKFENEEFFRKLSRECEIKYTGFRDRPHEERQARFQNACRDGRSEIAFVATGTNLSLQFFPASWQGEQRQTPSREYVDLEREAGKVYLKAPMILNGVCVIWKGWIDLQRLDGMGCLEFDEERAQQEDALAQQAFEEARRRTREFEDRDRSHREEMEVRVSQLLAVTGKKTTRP

[20] = target: T5, Runt-related transcription factor 1/Core-binding factor subunit beta; experiment: disruptors of Runt domain/CBFb-SMMHC interaction – biochemical, FRET, Cerulean-Runt, Venus-CBFb-SMMHC, uHTS, […] (AID 1434); format: protein assay
[21] = target: T6, Endoribonuclease toxin MazF (Escherichia coli K-12, UniProt P0AE70); experiment: substrate-only fluorescence increase artefacts – biochemical, single-stranded RNase substrate, counter-screen for MazEF activator project, dose response (AID 588502); format: functional
T6 sequence (P0AE70 whole entry): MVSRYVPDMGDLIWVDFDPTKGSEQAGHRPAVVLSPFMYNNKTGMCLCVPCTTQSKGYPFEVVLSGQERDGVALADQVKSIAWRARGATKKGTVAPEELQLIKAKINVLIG

[22] = target: T6, Endoribonuclease toxin MazF; experiment: activation of MazEF endoribonuclease cleavage – biochemical, fluorescence, single-stranded RNA substrate, uHTS hits, dose response (AID 588481); format: functional
[23] = target: Potassium voltage-gated channel subfamily KQT member 2 (Rattus norvegicus, UniProt O88943); experiment: potentiation of rat KCNQ2 current – cell-based, retigabine-insensitive compounds, dose response (AID 2654); format: functional
[24] = target: T7, Corticotropin-releasing factor receptor 2/Corticotropin-releasing factor-binding protein (Homo sapiens, UniProt P24387+Q13324); experiment: activators of CRF receptor 2 with binding protein – uHTS hits, confirmation (AID 602473); format: functional; conditions: read-out: EC50_Mean
T7 sequence (Q13324 whole entry): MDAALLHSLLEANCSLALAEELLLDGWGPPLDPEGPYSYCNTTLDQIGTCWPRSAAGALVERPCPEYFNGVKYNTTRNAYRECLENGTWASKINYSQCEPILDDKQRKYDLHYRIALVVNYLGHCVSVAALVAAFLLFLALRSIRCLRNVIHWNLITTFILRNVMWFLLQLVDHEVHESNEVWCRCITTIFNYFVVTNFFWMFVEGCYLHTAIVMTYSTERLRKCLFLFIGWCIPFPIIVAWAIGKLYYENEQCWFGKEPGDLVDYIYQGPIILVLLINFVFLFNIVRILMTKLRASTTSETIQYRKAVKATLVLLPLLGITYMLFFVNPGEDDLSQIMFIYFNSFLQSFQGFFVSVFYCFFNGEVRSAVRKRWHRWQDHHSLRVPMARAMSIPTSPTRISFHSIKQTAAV
T7 sequence (P24387 whole entry): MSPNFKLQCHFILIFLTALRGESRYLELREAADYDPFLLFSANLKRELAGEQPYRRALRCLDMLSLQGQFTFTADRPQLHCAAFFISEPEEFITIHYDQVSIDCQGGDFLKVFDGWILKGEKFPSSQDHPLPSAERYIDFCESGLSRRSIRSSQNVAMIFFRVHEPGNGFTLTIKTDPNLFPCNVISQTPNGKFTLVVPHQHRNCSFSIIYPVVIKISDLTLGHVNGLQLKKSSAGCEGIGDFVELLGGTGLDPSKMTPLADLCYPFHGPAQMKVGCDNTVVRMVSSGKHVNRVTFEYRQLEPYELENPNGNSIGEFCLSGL

[25] = target: T7, Corticotropin-releasing factor receptor 2/Corticotropin-releasing factor-binding protein; experiment: Dose Response confirmation of uHTS hits for small molecule antagonists of the CRF-binding protein and CRF-R2 receptor complex.; format: functional; conditions: read-out: IC50_Mean

In the case of `O=C(N/N=C/c1c(O)ccc2ccccc12)c1cccc(C(F)(F)F)c1`, the EC50 [1] is reported as 0.686 µM (active), the EC50 (cells [2]) is reported as 8.23 µM (active) and the AC50 [3] is reported as 2.24 µM (active). The EC50 [4] was > 180 µM (inactive), the EC50 [5] was 6.11 µM (active) and the EC50 (cells [6]) was > 350 µM (not active). The EC50 [7] was 0.452 µM (active), the IC50 [8] was > 80 µM (inactive) and the EC50 [9] was 26.9 µM (active). The EC50 [10] was 9.34 µM (active).

For `COc1cccc(Nc2ccc(N3CCCCC3)cc2)c1OC`, the IC50 [11] was 21.4 µM (inactive), the IC50 [12] was 9.65 µM (active) and the IC50 [13] was > 66 µM (inactive). The AC50 (HeLa) was 252 µM (active).

With `N#Cc1ccc(C(=O)NC2CCCCCCC2)cc1` the AC50 (HeLa) was 55 µM (active).

In the case of `O=C1NC(=O)/C(=C/c2ccc(O)cc2)S1`, the AC50 [14] is reported as 0.414 µM (active) and the IC50 (Large T antigen) is reported as 10.1 µM (active).

For `O=C(CCN1C(=O)/C(=C/c2ccccc2Cl)SC1=S)NC1C=CS(=O)(=O)C1` (stereo unspecified), the IC50 [15] was > 50 µM (inactive) and the IC50 [16] was 5.41 µM (active).

In the case of `COc1ccc(-c2nnc(NC(=O)c3cc(Cl)ccc3Cl)o2)cc1`, the EC50 [17] is reported as 2.64 µM (active), the EC50 (Streptococcus) is reported as 7.89 µM (active) and the EC50 [4] is reported as > 180 µM (inactive). For the same compound, the EC50 [7] was 0.815 µM (active), the EC50 [18] was 10.8 µM (active) and the EC50 [9] was > 150 µM (inactive). The EC50 [10] was 18 µM (active).

In the case of `N#Cc1c(-c2ccncc2)c2c([nH]c1=O)-c1ccccc1OC2`, the IC50 [19] is reported as > 100 µM (inactive) and the IC50 [20] is reported as 1.04 µM (active).

With `COc1ccc2nc(N3CCCC3)c(C#N)cc2c1` the EC50 [21] was > 99 µM (inactive), the IC50 [19] was > 100 µM (inactive) and the IC50 [20] was 2.04 µM (active). The EC50 [22] was > 99 µM (inactive).

For `Cc1ccc(NC(=O)C2C3/C=C\CCCCC32)cc1` (stereo unspecified), the AC50 (HeLa) was 197 µM (active).

In the case of `CCCCc1ccc(NC(=S)Nc2cccnc2)cc1`, the EC50 [23] is reported as 268 µM (active), the EC50 [24] is reported as > 53 µM (inactive) and the IC50 [25] is reported as > 47.1 µM (inactive).

— ChEMBL document CHEMBL1201862, “PubChem BioAssay data set” (2004)
